# Experimental data: US20240197700A1, “Methods and Compositions for Treating Lysosomal Storage Disorders” (Sanford Health, priority 2021, published 2024)
# What was measured:
# [1] = system: TFEB; test: TFEB nuclear translocation time course in transfected N2A cells; type: cell-based, mouse; conditions: for TFEB nuclear translocation: N2A cells; for TFEB nuclear translocation (i.e., activation): overall statement, GFP-TFEB transfected N2A cells, acute treatment
# Description: FIG. 15(A-B). Treatment with LM11A-31 stimulates TFEB nuclear translocation as monitored via time course study. For (A), wild type neuro 2A […] neuroblastoma (N2A) cells were plated and transfected with a pEGFP-N1-TFEB plasmid for a 24-hour incubation. Cells were dyed and imaged on the CellInsight™ CX7 High-Content Screening Platform (CX7) then treated with media containing vehicle or LM11A-31 (100 nM, 1 μM). Cells were imaged every 30 minutes for three hours on the CX7 with incubation between imaging sessions, and results were quantified. The statistics were analyzed using Graphpad Prism™. One-way ANOVA. Mean S.E.M. Dunnett's multiple comparisons test compared to the vehicle treated group. *p<0.05, **p<0.01, ***p<0.001, ****p<0.0001. Quantification of TFEB nuclear translocation after treatment with vehicle or LM11A-31 (100 nM, 1 μM). […] (B) Since LM11A-31 increases the expression of lysosomal genes including the PPT1 and TPP1, and Cathepsin D enzymes, we asked whether LM11A-31 increases the overall activity levels of these enzymes in cellulo. Wild type (WT) and mutant cells were treated with vehicle or LM11A-31 (100 nM). Cells were plated on day 0 and dosed with drug-containing media on DIV3 and DIV5. Cells were lysed, and protein quantification and enzyme activity assay were performed on DIV7. Data was analyzed with GraphPad Prism™. Two-way ANOVA. Mean S.E.M. Tukey's multiple comparisons test. *p<0.05, **p<0.01, ***p<0.001. ****p<0.0001.
# Treatment with AF38469 stimulates TFEB nuclear translocation as monitored via time course study. For (A) and (B), wild type neuro 2A […] neuroblastoma (N2A) cells were plated and transfected with a pEGFP-N1-TFEB plasmid for a 24-hour incubation. Cells were treated with vehicle or AF38469 (40 nM, 400 nM) for three hours then immunocytochemistry was performed with anti-GFP (Abcam, ab13970) and 4′, -diamidino-2-phenylindole-dihydrochloride (DAPI). Cells were imaged on the Nikon AIR confocal microscope. For (C), wild type N2A cells were plated and transfected with a pEGFP-N1-TFEB plasmid for a 24-hour incubation. Cells were dyed and imaged on the CellInsight™ CX7 High-Content Screening Platform (CX7) then treated with media containing vehicle or AF38469 (40 nM, 400 nM). Cells were imaged every 30 minutes for three hours on the CX7 with incubation between imaging sessions, and results were quantified. The statistics were analyzed using Graphpad Prism™. One-way ANOVA. Mean±S.E.M. Dunnett's multiple comparisons test compared to the vehicle treated group. *p<0.05,**p<0.01, ***p<0.001, ****p<0.0001. […] TFEB is a transcription factor that stimulates transcription of genes that are necessary for lysosomal biogenesis and function. Thus, increased TFEB nuclear translocation is expected to stimulate lysosomal biogenesis and function.
# [2] = system: Cln3^Δex7/8 mice; test: SubC burden (immunohistochemistry) in brain of Cln3^Δex7/8 mice; type: in vivo, mouse
Molecule,"TFEB nuclear translocation ([1]; 100 nM and 1 μM, 180 minutes of incubation)","TFEB nuclear translocation ([1]; 100 nM, 90 minutes of incubation)","TFEB nuclear translocation (i.e., activation) [1]","TFEB nuclear translocation ([1]; 40 nM and 400 nM, 180 minutes of incubation, vs vehicle)","TFEB nuclear translocation ([1]; 40 nM, 90 minutes of incubation, vs vehicle)","SubC accumulation ([2]; overall statement, short term treatment, Cln3^Δex7/8)","SubC burden ([2]; semaglutide 2.571 μg/mouse s.c., CA3 of the hippocampus)","SubC burden ([2]; semaglutide 2.571 μg/mouse s.c., VPM/VPL of the thalamus)","accumulation of mitochondrial ATP synthase subunit C (SubC) ([2]; semaglutide 2.571 μg/mouse, 25.71 μg/mouse s.c., S1BF of the somatosensory cortex)","SubC burden ([2]; semaglutide 25.71 μg/mouse s.c., CA3 of the hippocampus)","SubC burden ([2]; semaglutide 25.71 μg/mouse s.c., VPM/VPL of the thalamus)"
"CC[C@H](C)[C@H](N)C(=O)NCCN1CCOCC1 [LM11A-31, N-[2-(morpholin-4-yl)ethyl]-L-isoleucinamide]",increasing trend continued,significant increase,stimulated,–,–,–,–,–,–,–,–
"Cc1cccc(NC(=O)c2ccc(C(F)(F)F)cc2C(=O)O)n1 [AF38469, 2-((6-methylpyridin-2-yl)carbamoyl)-5-(trifluoromethyl)benzoic acid]",–,–,stimulated,significant increase,significant increase,reduces,–,–,–,–,–
semaglutide,–,–,–,–,–,–,had no significant effect,had no significant effect,had no significant effect,significantly reduced,significantly elevated
